# Tests used:
# Assay type in all cases: in vivo
# [1] = system: barnyardgrass (ECHCG; Echinochloa crus-galli (L.) Beauv.); test: Test H mixtures of compound 1 with diflufenzopyr; conditions: foliage spray
# From the text: (§1) This test evaluated the effect of mixtures of compound 1 with diflufenzopyr on several plant species. Seeds of test plants consisting of large crabgrass (DIGSA, Digitaria sanguinalis (L.) Scop.), lambsquarters (CHEAL, Chenopodium album L.), redroot pigweed (AMARE, Amaranthus retroflexus L.), cocklebur (XANST, Xanthium strumarium L.), barnyardgrass (ECHCG; Echinochloa crus-galli (L.) Beauv.), corn (ZEAMD, Zea mays L. cv. ‘Pioneer 33G26’), scarlet (red) morningglory (IPOCO, Ipomoea coccinea L.), giant foxtail (SETFA, Setaria faberi Herrm.) and velvetleaf (ABUTH, Abutilon theophrasti Medik.) were planted in pots containing Redi-Earth® planting medium (Scotts Company, 14111 Scottslawn Road, Marysville, Ohio 43041) comprising spaghnum peat moss, vermiculite, wetting agent and starter nutrients. Seeds of small-seeded species were planted about 1 cm deep; larger seeds were planted about 2.5 cm deep. Plants were grown in a greenhouse using supplemental lighting to maintain a photoperiod of about 14 hours; daytime and nighttime temperatures were about 25-30° C. and 22-25° C., respectively. Balanced fertilizer was applied through the watering system. The plants were grown for 7 to 11 days so that at time of treatment the plants ranged in height from 2 to 18 cm (1- to 4-leaf stage). Treatments consisted of Compound 1 and diflufenzopyr alone and in combination, suspended or dissolved in an aqueous solvent comprising glycerin and Tween nonionic surfactant and applied as a foliage spray using a volume of 541 L/ha. Each treatment was replicated four times. […] Treated plants and controls were maintained in the greenhouse and watered as needed with care to not wet the foliage for the first 24 hours after treatment. The effects on the plants approximately 3 weeks after treatment were visually compared to untreated controls. Plant response ratings were calculated as the means of the four replicates, based on a scale of 0 to 100 where 0 is no effect and 100 is complete control. Colby's Equation was used to determine the herbicidal effects expected from the mixtures. Colby's Equation (Colby, S. R. “Calculating Synergistic and Antagonistic Responses of Herbicide Combinations,” Weeds, 15(1), pp 20-22 (1967)) calculates the expected additive effect of herbicidal mixtures, and for two active ingredients is of the form: Pa+b=Pa+Pb−(PaPb/100) wherein Pa+b is the percentage effect of the mixture expected from additive contribution of the individual components, • Pa is the observed percentage effect of the first active ingredient at the same use rate as in the mixture, and • Pb is the observed percentage effect of the second active ingredient at the same use rate as in the mixture.
# [2] = system: cocklebur (XANST, Xanthium strumarium L.); test: Test H mixtures of compound 1 with diflufenzopyr; conditions: foliage spray
# From the text: as §1
# [3] = system: corn (ZEAMD, Zea mays L. cv. ‘Pioneer 33G26’); test: Test H mixtures of compound 1 with diflufenzopyr; conditions: foliage spray
# From the text: as §1
# [4] = system: giant foxtail (SETFA, Setaria faberi Herrm.); test: Test H mixtures of compound 1 with diflufenzopyr; conditions: foliage spray
# From the text: as §1
# [5] = system: lambsquarters (CHEAL, Chenopodium album L.); test: Test H mixtures of compound 1 with diflufenzopyr; conditions: foliage spray
# From the text: as §1
# [6] = system: large crabgrass (DIGSA, Digitaria sanguinalis (L.) Scop.); test: Test H mixtures of compound 1 with diflufenzopyr; conditions: foliage spray
# From the text: as §1
# [7] = system: redroot pigweed (AMARE, Amaranthus retroflexus L.); test: Test H mixtures of compound 1 with diflufenzopyr; conditions: foliage spray
# From the text: as §1
# [8] = system: scarlet (red) morningglory (IPOCO, Ipomoea coccinea L.); test: Test H mixtures of compound 1 with diflufenzopyr; conditions: foliage spray
# From the text: as §1
# [9] = system: velvetleaf (ABUTH, Abutilon theophrasti Medik.); test: Test H mixtures of compound 1 with diflufenzopyr; conditions: foliage spray
# From the text: as §1
# [10] = system: barnyardgrass (ECHCG; Echinochloa crus-galli); test: Test J mixtures of compound 58 with azimsulfuron, flooded paddy; conditions: 21 days, scale 0-100
# From the text: (§2) This test evaluated the effect of mixtures of compound 58 with azimsulfuron on several plant species. Three plastic pots (ca. 16-cm diameter) per rate were partially filled with sterilized Tama silt loam soil comprising a 35:50:15 ratio of sand, silt and clay and 2.6% organic matter. Separate plantings for each of the three pots were as follows. Seeds from the U.S. of ducksalad (HETLI; Heteranthera limosa), smallflower umbrella sedge (CYPDI; Cyperus difformis) and purple redstem (AMMCO; Ammannia coccinea), were planted into one 16-cm pot for each rate. Seeds from the U.S. of bearded sprangletop (LEFUF; Leptochloa fusca ssp. fascicularis), one stand of 9 or 10 water-seeded rice seedlings (ORYSW; Oryza sativa cv. ‘Japonica-M202’), and one stand of 6 transplanted rice seedlings (ORYSP; Oryza sativa cv. ‘Japonica-M202’) were planted into one 16-cm pot for each rate. Seeds from the U.S. of barnyardgrass (ECHCG; Echinochloa crus-galli), late watergrass (ECOR2; Echinochloa oryzicola), early watergrass (ECHOR; Echinochloa oryzoides) and junglerice (ECHCO; Echinochloa colona) were planted into one 16-cm pot for each rate. Plantings were sequential so that crop and weed species were at the 2.0 to 2.5-leaf stage at time of treatment.
# (§3) Potted plants were grown in a greenhouse with day/night temperature settings of 29.5/26.7° C., and supplemental balanced lighting was provided to maintain a 16-hour photoperiod. Test pots were maintained in the greenhouse until test completion.
# (§4) At time of treatment, test pots were flooded to 3 cm above the soil surface and then treated by application directly to the paddy water of test compounds formulated in a non-phytotoxic solvent mixture which included a surfactant. The pots were maintained at the 3-cm water depth for the duration of the test. Treatments consisted of compound 58 and azimsulfuron alone and in combination. Effects of treatments on rice and weeds were visually evaluated by comparison to untreated controls after 21 days. Plant response ratings were calculated as the means of the three replicates and are summarized in Table J. The ratings are based on a scale of 0 to 100 where 0 is no effect and 100 is complete control. A dash (-) response means no test result. Colby's Equation was used to determine the herbicidal effects expected from the mixtures.
# [11] = system: junglerice (ECHCO; Echinochloa colona); test: as above; conditions: 21 days, scale 0-100
# From the text: as §2, §3, §4
smiles,measurement,setting,value
"CCOC(=O)c1nc(C2CC2)nc(N)c1Br [Compound 1, ethyl 6-amino-5-bromo-2-cyclopropyl-4-pyrimidinecarboxylate]",Obsd. observed effect (0 to 100 scale),[1]; Cmpd 1 31 g a.i./ha,25
same,Obsd. observed effect (0 to 100 scale),[1]; Cmpd 1 62 g a.i./ha,42
same,Obsd. observed effect (0 to 100 scale),[1]; Cmpd 1 125 g a.i./ha,90
same,Obsd. observed effect (0 to 100 scale),[2]; Cmpd 1 31 g a.i./ha,87
same,Obsd. observed effect (0 to 100 scale),[2]; Cmpd 1 62 g a.i./ha,98
same,Obsd. observed effect (0 to 100 scale),[2]; Cmpd 1 125 g a.i./ha,97
same,Obsd. observed effect (0 to 100 scale),[3]; Cmpd 1 31 g a.i./ha,2
same,Obsd. observed effect (0 to 100 scale),[3]; Cmpd 1 62 g a.i./ha,5
same,Obsd. observed effect (0 to 100 scale),[3]; Cmpd 1 125 g a.i./ha,22
same,Obsd. observed effect (0 to 100 scale),[4]; Cmpd 1 31 g a.i./ha,2
same,Obsd. observed effect (0 to 100 scale),[4]; Cmpd 1 62 g a.i./ha,4
same,Obsd. observed effect (0 to 100 scale),[4]; Cmpd 1 125 g a.i./ha,65
same,Obsd. observed effect (0 to 100 scale),[5]; Cmpd 1 31 g a.i./ha,98
same,Obsd. observed effect (0 to 100 scale),[5]; Cmpd 1 62 g a.i./ha,100
same,Obsd. observed effect (0 to 100 scale),[5]; Cmpd 1 125 g a.i./ha,100
same,Obsd. observed effect (0 to 100 scale),[6]; Cmpd 1 31 g a.i./ha,7
same,Obsd. observed effect (0 to 100 scale),[6]; Cmpd 1 62 g a.i./ha,37
same,Obsd. observed effect (0 to 100 scale),[6]; Cmpd 1 125 g a.i./ha,81
same,Obsd. observed effect (0 to 100 scale),[7]; Cmpd 1 31 g a.i./ha,91
same,Obsd. observed effect (0 to 100 scale),[7]; Cmpd 1 62 g a.i./ha,97
same,Obsd. observed effect (0 to 100 scale),[7]; Cmpd 1 125 g a.i./ha,100
same,Obsd. observed effect (0 to 100 scale),[8]; Cmpd 1 31 g a.i./ha,92
same,Obsd. observed effect (0 to 100 scale),[8]; Cmpd 1 62 g a.i./ha,97
same,Obsd. observed effect (0 to 100 scale),[8]; Cmpd 1 125 g a.i./ha,100
same,Obsd. observed effect (0 to 100 scale),[9]; Cmpd 1 31 g a.i./ha,14
same,Obsd. observed effect (0 to 100 scale),[9]; Cmpd 1 62 g a.i./ha,26
same,Obsd. observed effect (0 to 100 scale),[9]; Cmpd 1 125 g a.i./ha,93
"COC(=O)c1nc(-c2ccc(Cl)cc2)nc(N)c1Cl [Compound 58, methyl 6-amino-5-chloro-2-(4-chlorophenyl)-4-pyrimidinecarboxylate]",ECHCG Obsd.,[10]; Compound 58 16 g a.i./ha alone,0
same,ECHCG Obsd.,[10]; Compound 58 32 g a.i./ha alone,0
same,ECHCG Obsd.,[10]; Compound 58 64 g a.i./ha alone,0
same,ECHCO Obsd.,[11]; Compound 58 16 g a.i./ha alone,0
same,ECHCO Obsd.,[11]; Compound 58 32 g a.i./ha alone,0
same,ECHCO Obsd.,[11]; Compound 58 64 g a.i./ha alone,0

# — patent US8802597B2, “Herbicidal pyrimidines” (E I du Pont de Nemours and Company, priority 2003, dated 2014)
